# “And” between values parts separate entries of the source, which are not always exact repeats. Equal entries are not always repeated.
# What was measured:
# [1] = test system: PBMC; assay: Time-dependent cytokine secretion by PBMC (Table 3); format: cell-based, human
# Protocol: Detailed time dependent and multiple controls were used the secretion of several cytokines by PBMC (IL-2, IL-5, IL-8, GM-CSF, IL-4, IL-10, TNF-α, IFN-γβ, IL-1 and IL-6) were measured. […] By 4 hours, sPIF-1 blocked TNF alpha with recovery by 24 hours. Also INFgamma secretion initiated only after 48 hours. […] Effects on cytokines was already noted at 0.7 nM. Similar effects were found also with other mitogens LPS and PHA when PIF-1 was tested.
# [2] = test system: THP1 a monocyte cell line; conditions: 1-100 nM, no mitogen
# Source text: The effect of PIF-1 was examined on THP1 a monocyte cell line (Dr Sharma Brown Univ).
# [3] = test system: donor lymphocytes and platelets; format: cell-based, human
# Source text: The PIF assay, as disclosed in U.S. Pat. No. 5,646,003 to Barnea et al., entitled “Preimplantation Factor” issued Jul. 9, 1997, and in U.S. Pat. No. 5,981,198 to Barnea et al., entitled “Preimplantation Factor” granted Nov. 9, 1999, the disclosures of which are incorporated herein by reference in their entirety, may be used to measure the response of the immune system to pregnancy specific preimplantation factors. […] Lymphocyte-platelet rosettes result from the interaction of the T cell surface protein CD2 with its ligand CD58 expressed on the platelet membrane. Anti-CD2, by binding to the CD2 antigen on the T cells, inhibits their interaction with platelets.
# Human PBMC were isolated by the Ficoll method. FITC-labeled nPIF-115 (SEQ ID NO: 1) and (FITC)-labeled scrPIF-1 (SEQ ID NO:5) and match-size irrelevant peptide (FITC)-labeled negative controls negPIF-1(15) (SEQ ID NO:11), were dissolved in PBS at concentrations ranging from 0.75 to 48.19 μM, and were incubated with 500,000 lymphocytes for 1 h at room temperature. The cells were washed 6 times with PBS and resuspended in 500 μl of the same buffer. T-cells and monocytes identification was performed in independent experiments by incubation with anti-CD3 and anti-CD14 antibody-phycoerithryn (PE) labeled. nPIF-115 (SEQ ID NO: 1) binding to PBMC was determined by flow cytometry. In addition, rosettes formed by T cell-platelets were detected by flow cytometry using anti-CD3 antibody-PE and anti-CD41a antibody-FITC (all antibodies were from Pharmingen Inc.).
# [4] = 4 h post induction, substance alone
# [5] = 4 h post induction, with MabCD3 coated wells
# [6] = 24 h post induction, substance alone
# [7] = 24 h post induction, with MabCD3 coated wells
# [8] = 48 h post induction, substance alone
# [9] = 48 h post induction, with MabCD3 coated wells
# [10] = 96 h post induction, substance alone
# [11] = 96 h post induction, with MabCD3 coated wells
sequence,measurement,setting,value
MVRIKPGSANKPSDD [sPIF-1(15)],concentration at which effects on cytokines was already noted,[1],0.7 nM
same,GM-CSF,[1]; [4],0 pg/mL
same,IFN-y,[1]; [4],0 pg/mL
same,IL-1β,[1]; [4],0 pg/mL
same,IL-2,[1]; [4],0 pg/mL
same,IL-4,[1]; [4],0 pg/mL
same,IL-5,[1]; [4],0 pg/mL
same,IL-6,[1]; [4],0 pg/mL
same,IL-8,[1]; [4],684.5 pg/mL
same,IL-10,[1]; [4],0 pg/mL
same,TNF-α,[1]; [4],0 pg/mL
same,GM-CSF,[1]; [5],0 pg/mL
same,IFN-y,[1]; [5],0 pg/mL
same,IL-1β,[1]; [5],0 pg/mL
same,IL-2,[1]; [5],0 pg/mL
same,IL-4,[1]; [5],0 pg/mL
same,IL-5,[1]; [5],0 pg/mL
same,IL-6,[1]; [5],17.5 pg/mL
same,IL-8,[1]; [5],514.8 pg/mL
same,IL-10,[1]; [5],0 pg/mL
same,TNF-α,[1]; [5],481.6 pg/mL
same,GM-CSF,[1]; [6],0 pg/mL
same,IFN-y,[1]; [6],0 pg/mL
same,IL-1β,[1]; [6],0 pg/mL
same,IL-2,[1]; [6],0 pg/mL
same,IL-4,[1]; [6],0 pg/mL
same,IL-5,[1]; [6],0 pg/mL
same,IL-6,[1]; [6],36.3 pg/mL
same,IL-8,[1]; [6],>6330 pg/mL
same,IL-10,[1]; [6],0 pg/mL
same,TNF-α,[1]; [6],38.0 pg/mL
same,GM-CSF,[1]; [7],58.9 pg/mL
same,IFN-y,[1]; [7],0 pg/mL
same,IL-1β,[1]; [7],2914.1 pg/mL
same,IL-2,[1]; [7],9045.7 pg/mL
same,IL-4,[1]; [7],58.9 pg/mL
same,IL-5,[1]; [7],397.5 pg/mL
same,IL-6,[1]; [7],>5200 pg/mL
same,IL-8,[1]; [7],>6330 pg/mL
same,IL-10,[1]; [7],1710.1 pg/mL
same,TNF-α,[1]; [7],>11390 pg/mL
same,GM-CSF,[1]; [8],0 pg/mL
same,IFN-y,[1]; [8],0 pg/mL
same,IL-1β,[1]; [8],0 pg/mL
same,IL-2,[1]; [8],0 pg/mL
same,IL-4,[1]; [8],0 pg/mL
same,IL-5,[1]; [8],0 pg/mL
same,IL-6,[1]; [8],0 pg/mL
same,IL-8,[1]; [8],>6330 pg/mL
same,IL-10,[1]; [8],0 pg/mL
same,TNF-α,[1]; [8],0 pg/mL
same,GM-CSF,[1]; [9],0 pg/mL
same,IFN-y,[1]; [9],>4740 pg/mL
same,IL-1β,[1]; [9],3295.4 pg/mL
same,IL-2,[1]; [9],6015.3 pg/mL
same,IL-4,[1]; [9],0 pg/mL
same,IL-5,[1]; [9],943.6 pg/mL
same,IL-6,[1]; [9],>5200 pg/mL
same,IL-8,[1]; [9],>6330 pg/mL
same,IL-10,[1]; [9],664.9 pg/mL
same,TNF-α,[1]; [9],>11390 pg/mL
same,GM-CSF,[1]; [10],0 pg/mL
same,IFN-y,[1]; [10],0 pg/mL
same,IL-1β,[1]; [10],0 pg/mL
same,IL-2,[1]; [10],0 pg/mL
same,IL-4,[1]; [10],0 pg/mL
same,IL-5,[1]; [10],0 pg/mL
same,IL-6,[1]; [10],0 pg/mL
same,IL-8,[1]; [10],6679.0 pg/mL
same,IL-10,[1]; [10],0 pg/mL
same,TNF-α,[1]; [10],0 pg/mL
same,GM-CSF,[1]; [11],0 pg/mL
same,IFN-y,[1]; [11],0 pg/mL
same,IL-1β,[1]; [11],0 pg/mL
same,IL-2,[1]; [11],0 pg/mL
same,IL-4,[1]; [11],0 pg/mL
same,IL-5,[1]; [11],0 pg/mL
same,IL-6,[1]; [11],0 pg/mL
same,IL-8,[1]; [11],0 pg/mL
same,IL-10,[1]; [11],0 pg/mL
same,TNF-α,[1]; [11],0 pg/mL
same,Th2 cytokine (IL10) secretion,"[1]; CD3MAb as mitogen, after 24 hours",Major increase
same,TNF alpha secretion,"[1]; CD3MAb as mitogen, by 4 hours, recovery by 24 hours",blocked
same,IL10 secretion,[2],dose dependent increase
same,Increase in Rosette Formation,[3],>370% and >288% and >208%
same,increase in the number of rosettes in the presence of the anti-CD2 antibody,[3],four-fold increase
